Laboratory results from publication PMC4201869 (Neuroendocrinology, 2014).
Values joined by “and” are separate entries in the source; they are usually repeats but may differ in a detail not shown here. Identical values can stand only once. Where no end group is shown, it is not given here.

Key:
Kiss1R (Homo sapiens) = Kiss1R (Homo sapiens) (UniProt Q969F8); settings: cited from earlier work
GnRH neurons [1] = experiment: Spontaneous action potential firing, current clamp, slices from female rats; type: cell-based, rat; settings: 7-10 min after addition
GnRH neurons [2] = experiment: Current-voltage; type: cell-based, rat; settings: 100 nM Kp-10, compared to control; representative recording (Figure 5B)
GnRH neurons [3] = settings: mice and guinea pigs; cited from earlier work
GnRH neurons [4] = test system: GnRH neurons
GnRH neurons [5] = settings: adult male mouse; cited from earlier work
GnRH neurons [6] = type: cell-based, rat

Sequence of UniProt Q969F8 (Q969F8 whole entry): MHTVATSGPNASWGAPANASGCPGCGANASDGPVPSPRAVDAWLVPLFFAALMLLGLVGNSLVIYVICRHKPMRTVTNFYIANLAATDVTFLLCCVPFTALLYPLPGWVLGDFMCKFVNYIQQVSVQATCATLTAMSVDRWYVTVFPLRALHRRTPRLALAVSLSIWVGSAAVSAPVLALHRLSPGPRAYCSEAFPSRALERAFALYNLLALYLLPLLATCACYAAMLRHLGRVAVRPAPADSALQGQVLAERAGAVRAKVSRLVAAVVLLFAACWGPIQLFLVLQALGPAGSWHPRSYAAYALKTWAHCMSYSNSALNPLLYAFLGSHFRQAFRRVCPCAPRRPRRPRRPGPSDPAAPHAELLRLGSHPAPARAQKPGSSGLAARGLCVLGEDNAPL
Sequence of Kp-10 (Q15726 whole entry, looked up): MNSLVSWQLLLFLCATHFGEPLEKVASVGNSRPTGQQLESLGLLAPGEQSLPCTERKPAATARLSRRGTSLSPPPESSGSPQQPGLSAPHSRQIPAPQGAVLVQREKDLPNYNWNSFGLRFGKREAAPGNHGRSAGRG

## Kp-10 (from UniProt Q15726)
Kiss1R (Homo sapiens)
  Kd: 2.7 nM

## YNWNSFGLRY-NH2 [Kp-10, Mouse KiSS-1 (110–119)-NH2]
GnRH neurons [1]
  effect on action potential firing, in words: stimulated the cell
GnRH neurons [2]
  reversal potential of kisspeptin-induced current: −110 mV
GnRH neurons [3]
  reversal potential of kisspeptin-induced currents: −100 to −110 mV
GnRH neurons [4]; 10 nM Kp-10, TTX, mean ± SEM
  depolarization by submaximal dose: 14.6 ± 2.3 mV
GnRH neurons [4]; 100 nM Kp-10, TTX, mean ± SEM
  maximum depolarization: 20.2 ± 1.2 mV
GnRH neurons [4]; current clamp, TTX 1.0 μM, female rats
  depolarization, in words: very prolonged, concentration-dependent depolarization of GnRH neurons that persisted long after washout of the agonist
GnRH neurons [4]; female rats, current clamp, TTX
  cells responding to kisspeptin: Approximately 90%
GnRH neurons [5]
  GnRH neurons activated by kisspeptin: about 90%

## CART: Cocaine and Amphetamine Regulated Transcript (55–102, rat), American Peptide Company, excitatory neuropeptide (IPIYEKKYGQVPMCDAGEQCAVRKGARIGKLCDCPRGTSCNSFLLKCL; ends and bridges not checked; cysteine pairing not given here; UniProt P49192 82-129, looked up, fragment)
GnRH neurons [6]
  CART-induced firing and depolarization, in words: persisted long after washout
GnRH neurons [6]; 30 nM CART, 8 out of 12 cells from 5 animals, without TTX
  GnRH neurons responding to CART: 60–70%
GnRH neurons [6]; 30 nM CART, TTX, n = 12 cells from 6 animals, mean ± SEM
  membrane depolarization by CART alone under TTX: 7.3 ± 0.6 mV and 7.3 ± 0.64 mV
GnRH neurons [6]; 30 nM CART, without TTX, p<0.0001
  membrane depolarization by CART: 7.8 ± 0.1 mV
